This is an account of results in US20260151518A1, “LEUKOCYTE-SPECIFIC CELL PENETRATING MOLECULES” (Amytrx Therapeutics, Inc., priority 2021, published 2026).

The series can be described thus: Blood partition calculation after single administration of [3H]-AMTX-100. It counts as in vivo. The arrangement: Partition coefficient / Non-plasma compartment: unit not given here. The settings on record: single intravenous (title), 5 mg/kg, rat. Here is the method: Eight male Sprague Dawley rats each received a single IV administration of [^3H]-AMTX-100 and a terminal sample of whole blood (each approximately 5-10 mL) was collected via cardiac puncture under isofluorane anesthesia from a single rat at the following time points: […]
Whole blood was collected into tubes containing K2-EDTA as anticoagulant. Following collection, an aliquot of whole blood (approximately 4 mL) was retained for analysis of whole blood and white blood cell (WBC) concentrations. The remaining whole blood samples were processed to plasma. Plasma samples were not depleted of white blood cells.

Turning to `CSCC[C@@H]1NC(=O)[C@H](CC(C)C)NC(=O)[C@H](CCCCN)NC(=O)[C@H](CCC(N)=O)CC(=O)[C@H](CCCNC(=N)N)NC(=O)[C@H](CCCCN)NC(=O)[C@H](CCCNC(=N)N)NC(=O)[C@H](CCC(N)=O)NC(=O)[C@H](C(C)C)NC(=O)[C@@H](NC(=O)[C@@H]2CCCN2C(=O)[C@H](C)NC(=O)[C@H](CC(C)C)NC(=O)[C@H](CC(C)C)NC(=O)[C@H](C)NC(=O)[C@H](CC(C)C)NC(=O)[C@H](CC(C)C)NC(=O)[C@@H](NC(=O)[C@H](C)NC(=O)[C@@H]2CCCN2C(=O)[C@H](CC(C)C)NC(=O)[C@H](CC(C)C)NC(=O)[C@H](C)NC(=O)[C@@H](NC(=O)[C@H](C)NC(=O)[C@H](C)N)C(C)C)C(C)C)CSSC[C@@H](C(=O)O)NC(=O)[C@@H]2CCCN2C1=O` [[^3H]-AMTX-100], the Blood reads like this: (1 h) 0.081 µg/mL; (2 h) 0.059^1 μg/mL; (4 h) 0.054 µg/mL; (8 h) 0.070 µg/mL; (24 h) 0.120 µg/mL; (48 h) 0.186 µg/mL. Moreover, the Non-plasma compartment is, setting by setting: (1 h) 11.7; (2 h) 20.3; (4 h) 24.4; (8 h) 22.9; (24 h) 27.0; (48 h) 28.7. For the same compound, the Partition coefficient (1 h) was 88.3; the Partition coefficient (2 h) was 79.7; the Partition coefficient (4 h) is given as 75.6; the Partition coefficient (8 h) is 77.1; the Partition coefficient (24 h) was 73.0; the Partition coefficient (48 h) is given as 71.3. Besides, the Plasma was 0.110 µg/mL (1 h); 0.084 µg/mL (2 h); 0.068 µg/mL (4 h); 0.090 µg/mL (8 h); 0.146 µg/mL (24 h); 0.221 µg/mL (48 h).
